Laboratory results taken from publication PMC8470881, “Membrane Interactions of Latarcins: Antimicrobial Peptides from Spider Venom” (International Journal of Molecular Sciences, 2021).

Tests used:
[1] = tested on: Bacillus subtilis subsp. spizizenii (DSM 347), Staphylococcus xylosus (DSM 20267), Escherichia coli (DSM 1116), Acinetobacter sp. (DSM 586); conditions: for MIC: irrespective of the bacterial strain (all four strains), Müller-Hinton medium, 20 h at 37 °C, maximum tested 256 µg/mL; for MIC (relative antimicrobial activity): relative activity over two Gram-positive and two Gram-negative strains
Procedure: The effect of latarcins against four types of bacteria was determined using a minimum inhibitory concentration (MIC) assay on two Gram-positive strains (Bacillus subtilis subsp. spizizenii and Staphylococcus xylosus) and two Gram-negative strains (Escherichia coli and Acinetobacter sp.). Although the antimicrobial activity of latarcins is well documented, these experiments served to ensure that all studies were performed on molecules that show the expected antimicrobial activity.
The minimum inhibitory concentration (MIC) was determined as previously reported. For each latarcin, MIC was determined against two Gram-positive strains, namely Bacillus subtilis subsp. spizizenii (DSM 347) and Staphylococcus xylosus (DSM 20267), and two Gram-negative strains: Escherichia coli (DSM 1116) and Acinetobacter sp. (DSM 586). Bacterial cultures were grown in Müller-Hinton medium (MHM) as described previously, and peptides were dissolved in sterile water containing 10% DMSO. The stock solution of peptides with 1024 µg/mL was prepared such that serial dilutions of peptides (from 256 µg/mL to 2 µg/mL) in MHM were prepared in 96-well plates with the penultimate column without peptide to act as positive control (no peptide) and the final column as negative control (no bacteria). Bacterial stock suspension was made with an OD of 0.2 units at 550 nm. This stock solution was further diluted (1:1000 for Gram-negative bacteria and 1:100 for Gram-positive bacteria), and subsequently, 50 µL of the resulting bacterial suspension was added to the wells except the final well to give a final concentration of 10^6 colony-forming units per mL. Afterwards, the 96-well plates were incubated at 37 °C for 20 h, and cellular respiration was detected by adding 20 µL of resazurin solution (200 µg/mL) for an additional 2 h at the same temperature.

[2] = Oriented circular dichroism (helix alignment in membrane); format: physicochemical; conditions: DMPC/DMPG (7/3), P/L = 1:100, oriented hydrated bilayers, 30 °C
Source text: This is the same lipid composition and peptide-to-lipid ratio as was used in conventional CD above (see Figure 2), but in contrast to the vesicular samples containing excess water, the oriented membranes for OCD are just about saturated with water.
The sign and intensity of the 208 nm band provide a characteristic signature of the helix tilt angle in the membrane [19]. For a helical peptide that lies flat on the bilayer surface, this band is the most intense.
To prepare oriented CD (OCD) samples, latarcins depending on their solubility were dissolved either in pure MeOH or CHCl3/MeOH 1/1 (v/v) and thoroughly mixed with appropriate aliquots of DMPC/DMPG solutions (7/3 molar ratio) in the same solvent. Each co-dissolved mixture with a peptide-to-lipid molar ratio of 1/100 was deposited on a quartz glass plate using a gas-tight syringe. To achieve a spot size of 12.5 mm on the 20 mm diameter plates (Suprasil QS, Hellma Optik GmbH, Jena, Germany), a volume of ~55–60 µL was used. The organic solvents were evaporated in a gentle stream of air until the sample appeared dry. The amounts of deposited lipid and peptide on the plate were always 0.29 μmole and 2.9 nmole, respectively. The peptide-lipid-film was further dried under reduced pressure for at least 3 h. Afterwards, each plate with the dried sample was fixed and sealed by a polymer O-ring in a cylindrical sample holder. The plate with the sample and a second window plate without the sample formed a compartment for controlled hydration. The holder was assembled in a custom-built hydration cell. In the inner compartment of the sample holder, the peptide-lipid film was hydrated for about 15 h at 30 °C and 97% relative humidity via the gas phase by a saturated K2SO4 solution contained in an adjacent cavity of the hydration cell. During hydration, the lipids spontaneously align as lipid bilayers that are macroscopically oriented perpendicular to the glass surface. For the measurement, the holder was transferred to an OCD sample cell that had been developed and built in-house [20]. It is computer-controlled and can be integrated into a Jasco spectropolarimeter as an accessory. The optical path runs along the cylindrical axis of the cell, i.e., normal to the quartz glass plate surface carrying the oriented lipid film. To reduce possible spectral artifacts caused by linear dichroism (LD) or linear birefringence (LB) due to imperfections in the sample, strain in the quartz glass or imperfect alignment of the windows, the OCD spectra were recorded in steps of 45° by rotation of the cell around the beam axis [19, 20]. At each angle, two scans were recorded from 260–185 nm as an average, using a scan rate of 20 nm min^−1, 4 s response time, and 1 nm bandwidth.

Row | Substance | MIC [1] | MIC (relative antimicrobial activity) [1] | OCD: orientational state of the helix [2]
1 | G E TF D K L K E K L K TFYQ K LV E K A ED L K G D L K A K LS-acid [Ltc7] | > 256 µg/mL | − | Surface
2 | H-GFFGKMKEYFKKFGASFKRRFANLKKRL-NH2 [Ltc5] | below 4 µg/mL | +++ | Surface
3 | H-GLKDKFKSMGEKLKQYIQTWKAKF-NH2 [Ltc4a] | 8 to 32 µg/mL | ++ | 
4 | H-QAFQTFKPDWNKIRYDAMKMQTSLGQMKKRFNL-OH [Ltc6a] |  | + | Aggregated
5 | H-SWKSMAKKLKEYMEKLKQRA-NH2 [Ltc3a] | 8 to 32 µg/mL | ++ | Slight tilt
